Assays:
Format in all cases: biochemical
[1] = molecular target: EGFR (Homo sapiens, UniProt P00533); assay: cell-free in vitro kinase inhibition assay; kinetic data
[2] = molecular target: T1, EPHA1 (Homo sapiens, UniProt P21709); assay: in vitro kinase inhibition, single concentration ([…]); conditions: read-out: %Inhibition (1 μM WSD-0922)
T1 sequence (P21709 26-976): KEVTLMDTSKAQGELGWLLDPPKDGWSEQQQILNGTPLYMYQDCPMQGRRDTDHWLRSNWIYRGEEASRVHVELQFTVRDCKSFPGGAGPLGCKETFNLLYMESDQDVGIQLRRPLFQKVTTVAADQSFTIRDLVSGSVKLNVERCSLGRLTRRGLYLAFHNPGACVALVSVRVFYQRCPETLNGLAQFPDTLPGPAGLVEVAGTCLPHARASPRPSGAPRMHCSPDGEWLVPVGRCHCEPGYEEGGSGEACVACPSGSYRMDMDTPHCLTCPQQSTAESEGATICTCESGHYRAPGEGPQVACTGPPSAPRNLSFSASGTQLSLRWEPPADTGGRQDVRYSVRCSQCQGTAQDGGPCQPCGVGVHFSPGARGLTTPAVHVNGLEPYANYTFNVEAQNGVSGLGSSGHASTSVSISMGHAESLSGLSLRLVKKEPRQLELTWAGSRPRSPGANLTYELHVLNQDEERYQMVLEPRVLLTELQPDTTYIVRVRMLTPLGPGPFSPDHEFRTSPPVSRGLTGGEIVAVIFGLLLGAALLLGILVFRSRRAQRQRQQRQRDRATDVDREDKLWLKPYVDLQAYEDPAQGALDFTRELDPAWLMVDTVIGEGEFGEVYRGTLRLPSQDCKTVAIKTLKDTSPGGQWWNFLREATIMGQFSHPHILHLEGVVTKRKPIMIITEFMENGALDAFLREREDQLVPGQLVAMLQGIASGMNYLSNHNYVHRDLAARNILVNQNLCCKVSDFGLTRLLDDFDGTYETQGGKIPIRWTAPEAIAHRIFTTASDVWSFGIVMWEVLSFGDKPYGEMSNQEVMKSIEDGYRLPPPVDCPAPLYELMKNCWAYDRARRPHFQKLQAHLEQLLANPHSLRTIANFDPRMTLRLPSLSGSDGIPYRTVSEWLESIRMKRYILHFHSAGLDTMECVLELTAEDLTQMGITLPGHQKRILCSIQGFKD

[3] = molecular target: HCK (Homo sapiens, UniProt P08631); assay: as above; conditions: read-out: %Inhibition (1 μM WSD-0922)
[4] = molecular target: T2, HER4 (Homo sapiens, UniProt Q15303); assay: as above; conditions: read-out: %Inhibition (1 μM WSD-0922)
T2 construct: gene ERBB4

[5] = molecular target: SRC (Homo sapiens, UniProt P12931); assay: as above; conditions: read-out: %Inhibition (1 μM WSD-0922)
[6] = molecular target: LCK (Homo sapiens, UniProt P06239); assay: as above; conditions: read-out: %Inhibition (1 μM WSD-0922)
[7] = molecular target: T3, LYNa (Homo sapiens, UniProt P07948); assay: as above; conditions: read-out: %Inhibition (1 μM WSD-0922)
T3 construct: gene LYN
T3 sequence (P07948 2-512): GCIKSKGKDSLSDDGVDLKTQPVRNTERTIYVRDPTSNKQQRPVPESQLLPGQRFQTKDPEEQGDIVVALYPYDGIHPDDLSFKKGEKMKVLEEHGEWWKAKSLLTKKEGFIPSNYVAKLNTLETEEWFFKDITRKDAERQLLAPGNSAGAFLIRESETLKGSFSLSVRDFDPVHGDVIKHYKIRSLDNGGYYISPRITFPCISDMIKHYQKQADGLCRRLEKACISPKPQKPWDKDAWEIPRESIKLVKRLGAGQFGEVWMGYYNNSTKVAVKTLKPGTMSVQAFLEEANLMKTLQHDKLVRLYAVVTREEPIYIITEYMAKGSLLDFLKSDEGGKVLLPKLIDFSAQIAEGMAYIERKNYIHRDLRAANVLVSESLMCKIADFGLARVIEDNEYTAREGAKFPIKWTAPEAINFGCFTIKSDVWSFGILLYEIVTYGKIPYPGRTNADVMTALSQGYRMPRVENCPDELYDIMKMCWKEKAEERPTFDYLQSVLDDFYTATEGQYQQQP

Chain of LCK (P06239 2-509): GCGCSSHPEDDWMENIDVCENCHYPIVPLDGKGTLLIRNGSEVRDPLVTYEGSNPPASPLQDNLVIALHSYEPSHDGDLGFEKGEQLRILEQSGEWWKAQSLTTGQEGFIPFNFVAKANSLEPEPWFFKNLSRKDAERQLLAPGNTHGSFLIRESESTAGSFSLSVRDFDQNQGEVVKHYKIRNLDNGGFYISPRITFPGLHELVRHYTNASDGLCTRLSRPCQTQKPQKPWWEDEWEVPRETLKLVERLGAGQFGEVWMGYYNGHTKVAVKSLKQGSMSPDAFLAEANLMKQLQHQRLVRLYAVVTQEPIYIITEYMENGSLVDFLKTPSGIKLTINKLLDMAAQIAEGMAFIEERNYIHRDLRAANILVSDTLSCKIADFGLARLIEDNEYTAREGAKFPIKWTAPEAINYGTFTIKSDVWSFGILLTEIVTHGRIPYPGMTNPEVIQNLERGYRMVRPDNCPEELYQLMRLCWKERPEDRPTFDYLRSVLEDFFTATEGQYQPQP
Chain of SRC (P12931 2-536): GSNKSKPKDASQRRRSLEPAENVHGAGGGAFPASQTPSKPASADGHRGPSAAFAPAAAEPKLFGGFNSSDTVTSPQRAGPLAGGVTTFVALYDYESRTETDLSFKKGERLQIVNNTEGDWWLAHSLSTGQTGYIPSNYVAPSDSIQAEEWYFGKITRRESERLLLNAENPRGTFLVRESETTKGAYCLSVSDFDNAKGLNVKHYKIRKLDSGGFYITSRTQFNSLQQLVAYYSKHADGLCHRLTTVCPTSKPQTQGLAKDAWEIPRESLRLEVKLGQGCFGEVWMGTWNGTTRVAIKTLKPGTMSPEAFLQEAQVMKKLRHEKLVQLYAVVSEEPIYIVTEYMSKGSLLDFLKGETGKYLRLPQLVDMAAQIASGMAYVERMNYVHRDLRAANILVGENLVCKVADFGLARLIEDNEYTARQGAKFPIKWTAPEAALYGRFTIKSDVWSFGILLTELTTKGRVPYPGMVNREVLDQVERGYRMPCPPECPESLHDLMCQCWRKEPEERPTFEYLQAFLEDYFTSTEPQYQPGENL
Chain of EGFR (P00533 25-1210): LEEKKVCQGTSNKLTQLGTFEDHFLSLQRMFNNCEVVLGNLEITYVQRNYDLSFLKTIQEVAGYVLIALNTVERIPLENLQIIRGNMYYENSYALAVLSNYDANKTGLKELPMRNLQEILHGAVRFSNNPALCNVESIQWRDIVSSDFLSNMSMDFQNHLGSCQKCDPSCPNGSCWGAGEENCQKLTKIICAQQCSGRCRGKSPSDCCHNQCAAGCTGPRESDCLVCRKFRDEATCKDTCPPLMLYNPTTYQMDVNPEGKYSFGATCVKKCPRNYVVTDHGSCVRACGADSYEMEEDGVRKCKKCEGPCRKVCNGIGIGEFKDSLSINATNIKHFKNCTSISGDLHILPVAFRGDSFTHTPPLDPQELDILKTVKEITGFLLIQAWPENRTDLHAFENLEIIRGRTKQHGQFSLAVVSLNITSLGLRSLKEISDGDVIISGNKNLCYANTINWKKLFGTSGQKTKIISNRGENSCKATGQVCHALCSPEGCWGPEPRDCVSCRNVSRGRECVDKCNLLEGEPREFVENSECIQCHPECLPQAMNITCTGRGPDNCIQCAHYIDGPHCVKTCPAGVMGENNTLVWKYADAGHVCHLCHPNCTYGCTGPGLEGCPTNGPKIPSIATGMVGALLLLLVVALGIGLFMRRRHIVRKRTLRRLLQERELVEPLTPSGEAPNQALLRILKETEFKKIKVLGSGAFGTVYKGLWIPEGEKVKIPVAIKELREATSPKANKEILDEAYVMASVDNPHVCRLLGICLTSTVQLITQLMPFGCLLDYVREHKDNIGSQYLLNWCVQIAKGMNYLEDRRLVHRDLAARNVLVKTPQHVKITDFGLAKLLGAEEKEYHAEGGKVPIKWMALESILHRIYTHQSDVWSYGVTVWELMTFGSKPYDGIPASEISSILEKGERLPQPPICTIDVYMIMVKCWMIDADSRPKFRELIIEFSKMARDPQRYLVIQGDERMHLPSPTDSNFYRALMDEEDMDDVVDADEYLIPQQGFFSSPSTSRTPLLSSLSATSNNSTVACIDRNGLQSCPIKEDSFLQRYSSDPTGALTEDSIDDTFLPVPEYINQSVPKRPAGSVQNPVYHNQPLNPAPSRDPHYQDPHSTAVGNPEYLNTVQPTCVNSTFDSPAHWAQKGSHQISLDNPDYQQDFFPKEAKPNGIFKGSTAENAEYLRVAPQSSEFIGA
T2 sequence (Q15303 26-1308): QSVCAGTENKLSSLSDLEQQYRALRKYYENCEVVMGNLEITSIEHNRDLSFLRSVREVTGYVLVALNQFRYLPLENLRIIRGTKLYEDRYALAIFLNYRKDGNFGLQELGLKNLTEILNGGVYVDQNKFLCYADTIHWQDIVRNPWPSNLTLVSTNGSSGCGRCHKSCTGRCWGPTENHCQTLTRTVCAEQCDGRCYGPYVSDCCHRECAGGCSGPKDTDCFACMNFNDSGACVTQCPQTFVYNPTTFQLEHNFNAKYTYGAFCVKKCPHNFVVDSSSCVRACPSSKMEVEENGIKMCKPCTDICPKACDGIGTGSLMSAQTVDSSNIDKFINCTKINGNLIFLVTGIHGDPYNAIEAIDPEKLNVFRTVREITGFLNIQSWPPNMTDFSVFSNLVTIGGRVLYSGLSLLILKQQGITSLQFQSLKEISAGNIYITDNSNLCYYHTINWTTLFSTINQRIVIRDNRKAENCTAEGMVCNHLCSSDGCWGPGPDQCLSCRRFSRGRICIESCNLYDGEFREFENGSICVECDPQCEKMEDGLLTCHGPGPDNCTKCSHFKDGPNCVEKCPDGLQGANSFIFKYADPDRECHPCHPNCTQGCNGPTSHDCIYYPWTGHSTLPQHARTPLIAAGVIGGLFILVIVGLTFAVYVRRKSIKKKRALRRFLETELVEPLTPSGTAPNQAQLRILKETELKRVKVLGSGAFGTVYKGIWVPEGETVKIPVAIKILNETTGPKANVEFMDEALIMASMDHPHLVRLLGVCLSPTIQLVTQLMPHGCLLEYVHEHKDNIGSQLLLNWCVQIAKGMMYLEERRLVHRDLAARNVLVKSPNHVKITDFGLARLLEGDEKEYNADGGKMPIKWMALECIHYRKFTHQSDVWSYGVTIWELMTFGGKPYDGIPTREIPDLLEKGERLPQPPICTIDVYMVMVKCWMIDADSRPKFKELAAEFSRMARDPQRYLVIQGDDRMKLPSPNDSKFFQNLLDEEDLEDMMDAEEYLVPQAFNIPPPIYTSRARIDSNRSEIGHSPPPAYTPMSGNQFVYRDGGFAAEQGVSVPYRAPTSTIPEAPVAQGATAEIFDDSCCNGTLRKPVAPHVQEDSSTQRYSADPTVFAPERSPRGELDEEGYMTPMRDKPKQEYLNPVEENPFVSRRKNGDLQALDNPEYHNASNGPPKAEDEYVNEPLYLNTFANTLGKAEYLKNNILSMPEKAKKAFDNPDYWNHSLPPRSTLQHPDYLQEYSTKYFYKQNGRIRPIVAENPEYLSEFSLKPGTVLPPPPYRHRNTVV
Chain of HCK (P08631 2-526): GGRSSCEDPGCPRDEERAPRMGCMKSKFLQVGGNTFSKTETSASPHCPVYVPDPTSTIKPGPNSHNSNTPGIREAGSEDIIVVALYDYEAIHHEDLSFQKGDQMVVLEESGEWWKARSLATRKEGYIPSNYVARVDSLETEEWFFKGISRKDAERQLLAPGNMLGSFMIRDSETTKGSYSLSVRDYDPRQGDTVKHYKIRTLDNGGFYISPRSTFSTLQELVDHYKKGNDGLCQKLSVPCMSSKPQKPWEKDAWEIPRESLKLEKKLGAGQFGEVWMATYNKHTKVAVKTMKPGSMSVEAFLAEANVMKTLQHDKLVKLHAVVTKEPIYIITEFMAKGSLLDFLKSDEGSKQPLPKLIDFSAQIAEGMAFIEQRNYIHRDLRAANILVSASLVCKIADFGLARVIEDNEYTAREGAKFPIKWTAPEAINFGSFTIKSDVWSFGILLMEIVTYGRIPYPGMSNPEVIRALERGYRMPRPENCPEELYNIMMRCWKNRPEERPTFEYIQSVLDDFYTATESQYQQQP

## C#Cc1cccc(Nc2ncnc3cc(OC)c(O[C@@H]4CCN(C)CC4(F)F)cc23)c1F [WSD-0922]
[1]
  IC50: 56 pM
[2]
  inhibition at 1 µM: 55.4%
[3]
  inhibition at 1 µM: 49.7%
[4]
  inhibition at 1 µM: 69.8%
[5]
  inhibition at 1 µM: 39.5%
[6]
  inhibition at 1 µM: 46.2%
[7]
  inhibition at 1 µM: 70.9%
